Converted amounts (≈) assume the structure as drawn.
Tests used:
[1] = molecular target: T1, BChE (EC 3.1.1.8, from horse serum) (Equus caballus, UniProt P81908); experiment: biochemical; details: means ± SD, at least three independents
T1 construct: BChE (EC 3.1.1.8, from horse serum); purchased Sigma-Aldrich; host or cells: horse serum
Protocol: (§1) AChE and BChE inhibitory activities of compounds were determined by using a modified Ellman’s method. AChE (EC 3.1.1.7, from electric eel), BChE (EC 3.1.1.8, from horse serum), 5,5′-dithiobis(2nitrobenzoic acid) (DTNB), acetylthiocholine iodide (ATCI) and butyrylthiocholine iodide (BTCI) were purchased from Sigma-Aldrich. The reaction mixture contained 140 μL of 100 mM sodium phosphate buffer (pH 8.0), the enzyme solution (either 0.05 U/mL of AChE, 20 μL; or 0.05 U/mL of BChE, 20 μL), and test compound (20 μL). Assayed solutions of test compounds were pre-incubated with corresponding ChE at 25 °C for 15 min. The reaction was initiated by the addition of 10 μL of 10 mM DTNB and 10 μL of 7.5 mM substrate (ATCI or BTCI). The activity was determined by measuring the increase in absorbance at 412 nm at 37 °C in 10 min intervals using a microplate reader. The percentage of inhibition was calculated from the measured data as follows: (Ac − Ai)/Ac × 100%, where Ai and Ac represent the change in the absorbance in the presence of inhibitor and without inhibitor, respectively.

[2] = molecular target: T2, AChE (EC 3.1.1.7, from electric eel) (Electrophorus electricus, UniProt O42275); experiment: biochemical; details: for IC50: means ± SD, at least three independents
T2 construct: purchased Sigma-Aldrich
T2 sequence (O42275 24-633): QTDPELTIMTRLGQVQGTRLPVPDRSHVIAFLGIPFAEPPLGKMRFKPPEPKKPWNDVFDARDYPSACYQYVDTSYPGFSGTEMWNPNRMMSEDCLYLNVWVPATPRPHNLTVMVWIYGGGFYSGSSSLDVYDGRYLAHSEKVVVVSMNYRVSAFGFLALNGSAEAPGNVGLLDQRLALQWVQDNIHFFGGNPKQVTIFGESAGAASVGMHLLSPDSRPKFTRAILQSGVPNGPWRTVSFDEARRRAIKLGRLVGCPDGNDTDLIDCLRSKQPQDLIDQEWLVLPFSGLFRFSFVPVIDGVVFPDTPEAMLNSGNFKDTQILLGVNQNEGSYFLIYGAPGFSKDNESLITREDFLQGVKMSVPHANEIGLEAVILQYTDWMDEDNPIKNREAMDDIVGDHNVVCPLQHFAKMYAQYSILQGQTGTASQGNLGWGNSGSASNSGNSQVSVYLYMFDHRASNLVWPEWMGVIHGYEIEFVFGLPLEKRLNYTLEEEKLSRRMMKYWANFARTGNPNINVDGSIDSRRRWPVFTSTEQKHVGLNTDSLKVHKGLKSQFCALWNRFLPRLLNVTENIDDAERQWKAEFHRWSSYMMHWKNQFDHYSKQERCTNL
Protocol: as §1

[3] = ABTS radical-scavenging assay
Protocol: ABTS radical-scavenging activity was measured by using the modified method. The test compound was dissolved in ethanol as 1.0 mg/mL, 0.5 mg/mL, 0.25 mg/mL, 0.125 mg/mL, 0.0625 mg/mL, and 0.03125 mg/mL. Similarly, the ethanol solution of Trolox with the same concentration gradient was prepared as a positive control. ABTS solution at a concentration of 7 mM and potassium persulfate solution at a concentration of 2.45 mM with distilled water were also prepared. The ABTS solution and the potassium persulfate solution were mixed in equal amounts, and then placed in the dark and protected from light for 12 h. The ABTS standard solution was diluted with ethanol until the absorbance value at 734 nm was in the range of 0.7 ± 0.05. Then, 3900 µL of ABTS cation solution was mixed with 100 µL of test compound at different concentrations. The samples were kept in the dark for 10 min at room temperature and absorption was measured at 734 nm on a spectrophotometer. The percentage of ABTS radical-scavenging activity was calculated as follows: (Ac−Ai)/Ac × 100%, where Ai and Ac represented the change in absorbance in the presence and absence of the test sample, respectively.

[4] = Lipophilicity (LogP) determination, shake-flask octanol/water; assay type: physicochemical; details: HPLC, read-out: LogP (experimental)
Source text: For anti-Alzheimer drug candidates, the ability to cross the blood–brain barrier (BBB) and to enter the central nervous system (CNS) is crucial to achieve their pharmacological target binding and activity, and CNS drugs require more strict rules for a successful penetration. […] Besides, for molecules to penetrate the BBB, a topological polar surface area (TPSA) value less than 90 Å ^2 is usually needed and molecules with a TPSA of greater than 120 Å ^2 tend to be poor in permeating cell membranes. Therefore, the molar mass (MW), LogP, and TPSA of all target compounds were simulated by ChemDraw 19.0 (Table 1). […] Because LogP was thought as an important physicochemical parameter to evaluate the ability to cross BBB, the LogP of some compounds was further assessed in experiments.
The lipophilicities of test compounds were determined using the traditional shake-flask method. A solid test compound (2 mg) was placed into a 10 mL pear-shaped flask, and measured volumes of octanol and water were added for logP determination. The resulting biphasic mixture was stirred for 24 h and then left without stirring for 12 h to allow phase separation. The test compound in each phase was sampled and quantitated using HPLC. The areas under the peaks were divided and the log taken.

[5] = Water solubility, shake-flask method; assay type: physicochemical; details: thermodynamic from solid, double distilled water, 37 °C
Protocol: Water solubility is regarded as another vital descriptor for BBB penetration, where high solubility is considered as a prerequisite for a rapid absorption and higher bioavailability of a drug candidate. […] With this experiment, we have obtained their data as 0.62, 3.03, 12.9, and […] for the selected compounds 11a, 11g, 12a, and 12c, respectively.
Solubility was determined by using the shake-flask method.The desired amount of the compound was placed in a test tube, to which an appropriate amount of double distilled water was introduced. The suspension was agitated on a plate shaker at 37 °C for 24 h. After centrifuging, HPLC analyses of supernatant was performed. The solubility of the compound was obtained from its HPLC result.

T1 sequence (P81908 whole entry): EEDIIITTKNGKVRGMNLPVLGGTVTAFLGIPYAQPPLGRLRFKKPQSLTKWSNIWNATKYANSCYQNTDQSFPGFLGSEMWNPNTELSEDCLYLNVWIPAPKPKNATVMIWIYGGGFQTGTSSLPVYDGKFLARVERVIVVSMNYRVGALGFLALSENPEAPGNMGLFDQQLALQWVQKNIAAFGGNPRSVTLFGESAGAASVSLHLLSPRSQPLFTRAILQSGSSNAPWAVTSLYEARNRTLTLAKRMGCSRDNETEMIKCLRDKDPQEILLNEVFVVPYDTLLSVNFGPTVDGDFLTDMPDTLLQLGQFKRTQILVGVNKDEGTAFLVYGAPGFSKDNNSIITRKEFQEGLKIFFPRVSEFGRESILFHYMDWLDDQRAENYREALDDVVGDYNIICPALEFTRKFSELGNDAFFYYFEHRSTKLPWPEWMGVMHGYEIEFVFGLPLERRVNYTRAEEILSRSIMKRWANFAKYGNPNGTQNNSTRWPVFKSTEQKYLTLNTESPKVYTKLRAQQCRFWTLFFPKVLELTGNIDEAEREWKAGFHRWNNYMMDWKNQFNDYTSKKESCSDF

| Compound | IC50 [1] | SI for AChE = IC50 BChE/IC50 AChE [2] | IC50 [2] | ABTS radical-scavenging IC50 [3] | IC50 [3] | logP at 24 h [4] | solubility at 24 h [5] |
| --- | --- | --- | --- | --- | --- | --- | --- |
| COc1cc2c(Nc3ccccc3Cl)c([N+](=O)[O-])cnc2cc1OCCCN1CCOCC1 [11b, 6-Methoxy-7-(3-Morpholinopropoxy)-3-Nitro-4-(2-Chlorophenylamino)-Quinoline] | 130 ± 4.62 µM | 10.42 | 12.5 ± 0.21 µM | – | – | – | – |
| COc1cc2c(Nc3cccc(Cl)c3)c([N+](=O)[O-])cnc2cc1OCCCN1CCOCC1 [11c, 6-Methoxy-7-(3-Morpholinopropoxy)-3-Nitro-4-(3-Chlorophenylamino)-Quinoline] | 114 ± 5.36 µM | 3.55 | 32.4 ± 0.16 µM | – | – | – | – |
| COc1cc2c(Nc3ccc(Cl)cc3)c([N+](=O)[O-])cnc2cc1OCCCN1CCOCC1 [11d, 6-Methoxy-7-(3-Morpholinopropoxy)-3-Nitro-4-(4-Chlorophenylamino)-Quinoline] | 82.4 ± 3.06 µM | 0.92 | 88.7 ± 1.1 µM | – | – | – | – |
| COc1cc2c(Nc3ccc(O)cc3)c([N+](=O)[O-])cnc2cc1OCCCN1CCOCC1 [11e, 6-Methoxy-7-(3-Morpholinopropoxy)-3-Nitro-4-(4-Hydroxylphenylamino)-Quinoline] | > 150 µM | >4.35 | 34.47 ± 0.09 µM | 12.01 ± 1.49 mg/L | 26.4 ± 3.28 µM | – | – |
| COc1ccc(Nc2c([N+](=O)[O-])cnc3cc(OCCCN4CCOCC4)c(OC)cc23)cc1 [11f, 6-Methoxy-7-(3-Morpholinopropoxy)-3-Nitro-4-(4-Methoxyphenylamino)-Quinoline] | 96.6 ± 4.75 µM | 7.54 | 12.8 ± 0.55 µM | 4.25 ± 0.63 mg/L | 9.07 ± 1.34 µM | – | – |
| COc1cc2c(Nc3ccccc3Cl)c([N+](=O)[O-])cnc2cc1OCCN1CCOCC1 [11h, 6-Methoxy-7-(2-Morpholinoethoxy)-3-Nitro-4-(2-Chlorophenylamino)-Quinoline] | 81.1 ± 4.03 µM | 12.55 | 6.46 ± 0.77 µM | – | – | – | – |
| COc1cc2c(Nc3cccc(Cl)c3)c([N+](=O)[O-])cnc2cc1OCCN1CCOCC1 [11i, 6-Methoxy-7-(2-Morpholinoethoxy)-3-Nitro-4-(3-Chlorophenylamino)-Quinoline] | 111 ± 5.59 µM | 11.08 | 10 ± 0.52 µM | – | – | – | – |
| COc1cc2c(Nc3ccc(Cl)cc3)c([N+](=O)[O-])cnc2cc1OCCN1CCOCC1 [11j, 6-Methoxy-7-(2-Morpholinoethoxy)-3-Nitro-4-(4-Chlorophenylamino)-Quinoline] | 76.8 ± 3.76 µM | 8.90 | 8.63 ± 0.4 µM | – | – | – | – |
| COc1cc2c(Nc3ccc(O)cc3)c([N+](=O)[O-])cnc2cc1OCCN1CCOCC1 [11k, 6-Methoxy-7-(2-Morpholinoethoxy)-3-Nitro-4-(4-Hydroxylphenylamino)-Quinoline] | > 150 µM | >8.11 | 18.5 ± 1.74 µM | 5.75 ± 1.37 mg/L | – | – | – |
| COc1ccc(Nc2c([N+](=O)[O-])cnc3cc(OCCN4CCOCC4)c(OC)cc23)cc1 [11l, 6-Methoxy-7-(2-Morpholinoethoxy)-3-Nitro-4-(4-Methoxyphenyamino)-Quinoline] | 63.9 ± 2.87 µM | 7.03 | 9.08 ± 0.53 µM | 2.75 ± 0.53 mg/L | 6.05 ± 1.17 µM | – | – |
| COc1cc2c(Nc3ccccc3)c([N+](=O)[O-])cnc2cc1OCCCCN1CCOCC1 [11m, 6-Methoxy-7-(4-Morpholinobutoxy)-3-Nitro-4-Phenylamino-Quinoline] | > 150 µM | >11.24 | 13.34 ± 0.07 µM | – | – | – | – |
| COc1cc2c(Nc3ccccc3Cl)c([N+](=O)[O-])cnc2cc1OCCCCN1CCOCC1 [11n, 6-Methoxy-7-(4-Morpholinobutoxy)-3-Nitro-4-(2-Chlorophenylamino)-Quinoline] | > 150 µM | >1.75 | 85.57 ± 0.04 µM | – | – | – | – |
| COc1cc2c(Nc3cccc(Cl)c3)c([N+](=O)[O-])cnc2cc1OCCCCN1CCOCC1 [11o, 6-Methoxy-7-(4-Morpholinobutoxy)-3-Nitro-4-(3-Chlorophenylamino)-Quinoline] | 116 ± 5.36 µM | <0.77 | > 150 µM | – | – | – | – |
| COc1cc2c(Nc3ccc(Cl)cc3)c([N+](=O)[O-])cnc2cc1OCCCCN1CCOCC1 [11p, 6-Methoxy-7-(4-Morpholinobutoxy)-3-Nitro-4-(4-Chlorophenylamino)-Quinoline] | 98.1 ± 0.02 µM | 1.08 | 90.46 ± 0.06 µM | – | – | – | – |
| COc1cc2c(Nc3ccc(O)cc3)c([N+](=O)[O-])cnc2cc1OCCCCN1CCOCC1 [11q, 6-Methoxy-7-(4-Morpholinobutoxy)-3-Nitro-4-(4-Hydroxyphenylamino)-Quinoline] | > 150 µM | >4.07 | 36.8 ± 0.45 µM | 26.12 ± 2.13 mg/L | 55.8 ± 4.55 µM | – | – |
| COc1ccc(Nc2c([N+](=O)[O-])cnc3cc(OCCCCN4CCOCC4)c(OC)cc23)cc1 [11r, 6-Methoxy-7-(4-Morpholinobutoxy)-3-Nitro-4-(4-Methoxyphenylamino)-Quinoline] | 106 ± 1.16 µM | 5.65 | 18.9 ± 0.51 µM | 11.25 ± 1.27 mg/L | 23.3 ± 2.63 µM | – | – |
| COc1cc2c(Nc3ccccc3)c(N)cnc2cc1OCCCN1CCOCC1 [12a, 6-Methoxy-7-(3-Morpholinopropoxy)-3-Amino-4-Phenylamino-Quinoline] | 30.5 ± 2.48 µM | 3.34 | 9.13 ± 0.42 µM | – | – | 2.07 | 12.9 mg/mL (≈ 31.6 mM) |
| COc1cc2c(Nc3ccccc3Cl)c(N)cnc2cc1OCCCN1CCOCC1 [12b, 6-Methoxy-7-(3-Morpholinopropoxy)-3-Amino-4-(2-Chlorophenylamino)-Quinoline] | 130 ± 3.76 µM | 3.01 | 43.3 ± 0.68 µM | – | – | – | – |
| COc1cc2c(Nc3cccc(Cl)c3)c(N)cnc2cc1OCCCN1CCOCC1 [12c, 6-Methoxy-7-(3-Morpholinopropoxy)-3-Amino-4-(3-Chlorophenylamino)-Quinoline] | 27.8 ± 2.16 µM | 1.26 | 22.1 ± 0.33 µM | – | – | 2.35 | 10.5 mg/mL (≈ 23.7 mM) |
| COc1cc2c(Nc3ccc(Cl)cc3)c(N)cnc2cc1OCCCN1CCOCC1 [12d, 6-Methoxy-7-(3-Morpholinopropoxy)-3-Amino-4-(4-Chlorophenylamino)-Quinoline] | 145 ± 4.25 µM | 6.63 | 21.84 ± 0.2 µM | – | – | – | – |
| Cc1c(C)c2c(c(C)c1O)CCC(C)(C(=O)O)O2 (centres unmarked) [Trolox, reference compound] | – | – | – | 2.76 ± 0.19 mg/L | 11 ± 0.76 µM | – | – |
